22 compounds from US20250268880A1, “3-(Hydroxy)-Pyridin-4(1H)-One Compounds and Methods of Making and Using the Same” (Georgia Tech Research Corporation, priority 2018, published 2025) can be followed below.

A word on the inhibition: it is the percentage by which the read-out fell short of the control. The term IC50 denotes the point on the concentration scale where inhibition reaches its midpoint.

Read-outs that look alike come from different tables or passages of the source.

In test [1] the test system is HP1-mediated heterochromatin gene repression at the CiA:Oct4 locus. As to the kind of experiment: HP1-recruitment assay (CiA:Oct4), % GFP (+) cells by flow cytometry. The class given is cell-based, mouse. To be noted: 48 h, CIP-rapamycin HP1 recruitment. An excerpt:
To elucidate the effect of DFP-based KDM inhibitors have on chromatin dynamics, we profiled them in an intracellular assay which measures heterochromatin formation speed. The chromatin assay (CiA) leverages chemical induced proximity (CTP) to recruit heterochromatin protein 1 (HP1) to a modified Oct4 locus. This reporter system inserts tandem arrays of Gal4 and zinc finger DNA binding domains in the promoter of one allele of Oct4, where the gene is replaced by a nuclear eGFP reporter. Protein fusions of Gal4-FKBP and FRRB—HP1 allow for direct chemical recruitment of HP1 to the CiA:Oct4 reporter locus upon addition of the chemical inducer of proximity (CIP)-rapamycin. After CIP-rapamycin addition, HIP1 is recruited to the reporter locus and brings histone methyltransferase enzymes to the chromatin reporter resulting in the repressive H3K9me3 mark being deposited. H3K9me3 deposition leads to heterochromatin formation and gene silencing (FIG. 7A). Others have shown that H3K4me3 marked nucleosomes impede H3K9 methyltransferases. Thus, we postulate that the active H3K4me3 mark mast be removed by KDM enzymes as part of the transformation from euchromatin to heterochromatin. Inhibition of KDMs, specifically those targeting H3K4me3, would result in a decrease in H3K9me3 accumulation, which would be measured in our assay as an increase in % GFP (+) cells.
To determine the effect of DFP-based KDM inhibitors on HP1-mediated gene repression, we treated CiA:Oct4 embryonic stem (ES) cells with doses of representative compounds ranging from […] for 48 h with and without CIP-rapamycin recruiting HP1 (FIG. 7B). […] Dose response curves of DFP derivatives abler 48 h with C) and without D) HP1 recruitment at 10000, 5000, 2500, 1000, 500, 250, and 0 nM concentrations. Flow cytometry was used to determine the % GFP (+) cells following treatment. n=6
The CiA:Oct4 recruitment system in mouse embryonic stem cells contains Gal4 and Zinc finger DNA binding arrays and a downstream nuclear eGFP gene in place of a single Oct4 allele as previously described. The CiA:Oct4 N118/N163 cell line containing viral integrations of N118 and N163 plasmids (N118-nLV EF-1α-Gal-FKBPx1-HA-PGK-Blast, N163-nLV EF-1α-HP1α (CS)-Frbx2(Frb+FrbWobb)-V5-PGK-Puro) was used for inhibition of HP1-mediated heterochromatin studies. All plasmids are freely available on addgene.
Day 0, CiA:Oct4 N118/163 cells were grown in ES media and seeded at a density of 10,000 cells per well (100.000 cells/ml) into gelatin coated 96 well plates. Day 1, culture media was aspirated and replaced with 100 μl ES media containing +/−6 nM rapamycin. 10 μM, 5 μM, 2.5 μM, 1 μM, 500 nM, and 250 nM concentrations of compound or DMSO were added using a TTP Labtech Mosquito HTS liquid handler. Days 2-4. fresh ES media+/−rapamycin and compound were added as in Day 1.
Day 3 and 5, cells were washed with PBS and trypsinized using 0.25% trypsin-EDTA. Trypsin was quenched with serum. Cells were resuspended by pipetting in preparation for flow cytometry analysis.
Flow cytometry data was acquired using the Intellicyt iQue Screener and analyzed with FlowJo software. Cell populations were gated based on forward and side scatter height. Single cell populations were gated using forward scatter area by forward scatter height. Autofluorescent cells were excluded and the remaining cells were gated into GFP (−) and GFP (+) populations based on DMSO control samples.
Background: Flow cytometry measures light scatter and fluorescence of single cells or particles in a stream.

Test [2] concerns the target T1, KDM6A (UTX) (Homo sapiens, UniProt O15550). The test is described as follows: biochemical. To be noted: for inhibition at 1 µM: read-out: KDM6A (UTX) Inhibition (%) 1 (μM); for inhibition at 10 µM: read-out: KDM6A (UTX) Inhibition (%) 10 (μM).
The next test relates to MDA-MB-231 (TNBC BCa). The test is described as follows: Cell viability assay (MTS), MDA-MB-231. The test is classed as cell-based. To be noted: NI = no inhibition, read-out: Antiproliferative Activity IC50 (μM) MDA-MB-231.
Test [3] has as its target T1, KDM6A (UTX). To be noted: for IC50 against KDM6A (in words): cell-free; for KDM6A (UTX) Inhibition (%) 1 (μM): compound at 1 μM; for KDM6A (UTX) Inhibition (%) 10 (μM): compound at 10 μM.

T1 sequence (O15550 whole entry): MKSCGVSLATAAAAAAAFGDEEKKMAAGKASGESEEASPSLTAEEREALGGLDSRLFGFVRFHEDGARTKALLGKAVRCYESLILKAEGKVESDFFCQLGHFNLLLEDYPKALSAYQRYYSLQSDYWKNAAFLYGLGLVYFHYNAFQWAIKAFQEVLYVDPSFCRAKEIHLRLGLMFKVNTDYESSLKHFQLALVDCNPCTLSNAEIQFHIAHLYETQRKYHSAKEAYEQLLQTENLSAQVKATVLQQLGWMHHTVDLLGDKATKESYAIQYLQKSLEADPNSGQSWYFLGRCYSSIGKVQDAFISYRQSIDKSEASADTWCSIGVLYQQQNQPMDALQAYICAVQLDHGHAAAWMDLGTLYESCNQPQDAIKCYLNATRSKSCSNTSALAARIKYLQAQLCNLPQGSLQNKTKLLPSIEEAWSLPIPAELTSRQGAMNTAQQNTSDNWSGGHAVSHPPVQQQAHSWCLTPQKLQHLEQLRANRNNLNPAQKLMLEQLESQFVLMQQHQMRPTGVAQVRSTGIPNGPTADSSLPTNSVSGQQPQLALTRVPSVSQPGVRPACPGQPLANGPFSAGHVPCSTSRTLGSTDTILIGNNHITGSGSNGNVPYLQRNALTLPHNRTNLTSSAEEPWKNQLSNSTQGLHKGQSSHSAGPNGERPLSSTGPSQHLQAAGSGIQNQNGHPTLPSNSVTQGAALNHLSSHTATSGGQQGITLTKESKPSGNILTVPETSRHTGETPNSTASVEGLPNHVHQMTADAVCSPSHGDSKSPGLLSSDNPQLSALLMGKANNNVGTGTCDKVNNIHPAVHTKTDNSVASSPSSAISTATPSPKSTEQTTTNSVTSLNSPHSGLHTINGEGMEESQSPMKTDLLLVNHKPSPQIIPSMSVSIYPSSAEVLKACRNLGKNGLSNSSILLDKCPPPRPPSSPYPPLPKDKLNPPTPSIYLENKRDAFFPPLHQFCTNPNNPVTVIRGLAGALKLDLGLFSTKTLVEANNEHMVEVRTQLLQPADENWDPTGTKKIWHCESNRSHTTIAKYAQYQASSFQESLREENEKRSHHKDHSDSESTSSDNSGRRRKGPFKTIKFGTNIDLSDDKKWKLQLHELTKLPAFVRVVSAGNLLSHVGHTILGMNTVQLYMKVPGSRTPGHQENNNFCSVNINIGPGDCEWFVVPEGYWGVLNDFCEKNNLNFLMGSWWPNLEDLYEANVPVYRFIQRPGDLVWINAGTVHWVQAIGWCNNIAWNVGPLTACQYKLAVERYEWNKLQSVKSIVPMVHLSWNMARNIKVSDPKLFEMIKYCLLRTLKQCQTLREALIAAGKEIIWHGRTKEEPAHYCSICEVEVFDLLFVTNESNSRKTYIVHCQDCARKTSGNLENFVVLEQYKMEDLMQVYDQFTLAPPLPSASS

As for `Cc1c(O)c(=O)ccn1CCn1cc(-c2ccccc2)nn1` [Compound 1a], in test [1], the “inhibition of heterochromatin formation (in words)” value (shortened to “inhibition … (in words)”) is on record as “weak inhibitors”. On KDM6A (UTX) [2], the inhibition at 1 µM turned out to be 12% and the inhibition at 10 µM turned out to be 96%.

With `Cc1ccc(-c2cn(CCCCn3ccc(=O)c(O)c3C)nn2)cc1` [Compound 2e, 3-Hydroxy-2-methyl-1-(4-(4-(p-tolyl)-1H-1,2,3-triazol-1-yl)butyl)pyridin-4(1H)-one], at KDM6A (UTX) [2], the inhibition at 1 µM stood at 13% and the inhibition at 10 µM was determined as 100%.

Take `COc1ccccc1-c1cn(CCCCn2ccc(=O)c(O)c2C)nn1` [Compound 2g, 3-Hydroxy-1-(4-(4-(2-methoxyphenyl)-1H-1,2,3-triazol-1-y)butyl)-2-methylpyridin-4(1H)-one]: the half-maximal inhibitory concentration (IC50) with MDA-MB-231 (TNBC BCa) (72 h) came to 9.6 µM.

For the compound `COc1ccccc1-c1cn(CCCCCn2ccc(=O)c(O)c2C)nn1` [Compound 2h, 3-Hydroxy-1-(5-(4-(2-methoxyphenyl)-1H-1,2,3-triazol-1-yl)pentyl)-2-methylpyridin-4(1H)-one], at KDM6A (UTX) [2], the inhibition at 1 µM was determined as 3% and the inhibition at 10 µM is 99%.

For the compound `COc1cccc(-c2cn(CCCCCn3ccc(=O)c(O)c3C)nn2)c1` [Compound 2j, 3-Hydroxy-1-(5-(4-(3-methoxyphenyl)-1H-1,2,3-triazol-1-yl)pentyl)-2-methylpyridin-4(1H)-one], in test [1], the “increase in GFP expression” value is given as 20% and the “inhibition … (in words)” value is reported as “significantly inhibited”. Further, at KDM6A (UTX) [2], the inhibition at 1 µM was 8% and the inhibition at 10 µM was 100%. In the test on MDA-MB-231 (TNBC BCa) (Homo sapiens, MDA-MB-231, 72 h), the IC50 turned out to be 19.6 µM. Besides, the “IC50 against KDM6A (in words)” value against KDM6A (UTX) [3] is “low micromolar”.

With `COc1ccc(-c2cn(CCCCCn3ccc(=O)c(O)c3C)nn2)cc1` [Compound 2l, 3-Hydroxy-1-(5-(4-(4-methoxyphenyl)-1H-1,2,3-triazol-1-yl)pentyl)-2-methylpyridin-4(1H)-one], at KDM6A (UTX) [2], the inhibition at 1 µM worked out at 4% and the inhibition at 10 µM was determined as 100%.

Consider `Cc1c(O)c(=O)ccn1CCCCCn1cc(-c2ccccc2F)nn1` [Compound 2m], for which, in the test with MDA-MB-231 (TNBC BCa) (72 h), the IC50 worked out at 18.3 µM. Moreover, on KDM6A (UTX) [3], the “KDM6A (UTX) Inhibition (%) 1 (μM)” value was found to be 16% and the “KDM6A (UTX) Inhibition (%) 10 (μM)” value stood at 100%.

For `Cc1c(O)c(=O)ccn1CCCCCn1cc(-c2cccc(F)c2)nn1` [Compound 2n, 1-(5-(4-(3-Fluorophenyl)-1H-1,2,3-triazol-1-yl)pentyl)-3-hydroxy-2-methylpyridin-4(1H)-one], on KDM6A (UTX) [2], the inhibition at 1 µM was 5% and the inhibition at 10 µM came out at 100%.

As to `Cc1c(O)c(=O)ccn1CCCCCn1cc(-c2ccc(F)cc2)nn1` [Compound 2o, 1-(5-(4-(4-Fluorophenyl)-1H-1,2,3-triazol-1-yl)pentyl)-3-hydroxy-2-methylpyridin-4(1H)-one], on KDM6A (UTX) [2], the inhibition at 1 µM amounted to 10% and the inhibition at 10 µM was 100%.

As for `Cc1c(O)c(=O)ccn1CCCCCn1cc(-c2ccccc2C(F)(F)F)nn1` [Compound 2p, 3-Hydroxy-2-methyl-1-(5-(4-(2-(trifluoromethyl)phenyl)-1H-1,2,3-triazol-1-yl)pentyl)pyridin-4(1H)-one], on KDM6A (UTX) [2], the inhibition at 1 µM was 15% and the inhibition at 10 µM was determined as 99%.

Consider `Cc1c(O)c(=O)ccn1CCCCCn1cc(-c2ccc(N(C)C)cc2)nn1` [Compound 2r, 1-(5-(4-(4-(Dimethylamino)phenyl)-1H-1,2,3-triazol-1-yl)pentyl)-3-hydroxy-2-methylpyridin-4(11)-one], for which, in the test with MDA-MB-231 (TNBC BCa) (72 h), the IC50 turned out to be 12.5 µM.

Regarding `Cc1c(O)c(=O)ccn1CCCCCn1cc(-c2ccccn2)nn1` [Compound 2s, 3-Hydroxy-2-methyl-1-(5-(4-(pyridin-2-yl)-1H-1,2,3-triazol-1-yl)pentyl)pyridin-4(1H)-one], on KDM6A (UTX) [2], the inhibition at 1 µM is 15% and the inhibition at 10 µM amounted to 99%.

On to `Cc1c(O)c(=O)ccn1CCCCCn1cc(-c2ccc(-c3ccncc3)cc2)nn1` [Compound 2t, 3-Hydroxy-2-methyl-1-(5-(4-(4-(pyridin-4-yl)phenyl)-1H-1,2,3-triazol-1-yl)pentyl)pyridin-4(1H)-one], for which, in test [1], the “concentration at which maximum inhibition of heterochromatin formation / gene repression is reached” value came to 10 µM and the “inhibition … (in words)” value was “significantly inhibited”. For the same compound, at KDM6A (UTX) [2], the inhibition at 1 µM came to 8% and the inhibition at 10 µM turned out to be 99%.

For `Cc1c(O)c(=O)ccn1CCCCCCn1cc(-c2ccc(-c3ccccc3)cc2)nn1` [Compound 2v, 1-(6-(4-([1,1-Biphenyl]-4-yl)-1H-1,2,3-triazol-1-yl)hexyl)-3-hydroxy-2-methylpyridin-4(1H)-one], in test [1], the “concentration at which maximum inhibition of heterochromatin formation / gene repression is reached” value came out at 1 µM and the “inhibition … (in words)” value is recorded as “significantly inhibited”.

Turning to `COc1ccc2cc(-c3cn(CCCCCCn4ccc(=O)c(O)c4C)nn3)ccc2c1` [Compound 2w, 3-Hydroxy-1-(6-(4-(6-methoxynaphthalen-2-yl)-1H-1,2,3-triazol-1-yl)hexyl)-2-methylpyridin-4(1H)-one], in test [1], the “concentration at which maximum inhibition of heterochromatin formation / gene repression is reached” value is 1 µM and the “inhibition … (in words)” value is “significantly inhibited”.

Turning to `Cc1c(O)c(=O)ccn1CCCCn1ccc(=O)c(O)c1C` [Compound 3a], at KDM6A (UTX) [3], the “KDM6A (UTX) Inhibition (%) 1 (μM)” value is recorded as 4% and the “KDM6A (UTX) Inhibition (%) 10 (μM)” value came out at 100%.

In the case of `Cc1c(O)c(=O)ccn1CCCCCn1ccc(=O)c(O)c1C` [Compound 3b], on KDM6A (UTX) [3], the “KDM6A (UTX) Inhibition (%) 1 (μM)” value was determined as 1% and the “KDM6A (UTX) Inhibition (%) 10 (μM)” value is given as 99%.

Turning to `Cc1c(O)c(=O)ccn1CCCCCCn1ccc(=O)c(O)c1C` [Compound 3c], at KDM6A (UTX) [3], the “KDM6A (UTX) Inhibition (%) 1 (μM)” value turned out to be 2% and the “KDM6A (UTX) Inhibition (%) 10 (μM)” value is reported as 100%.

With `Cc1c(O)c(=O)ccn1CCCCCCCn1ccc(=O)c(O)c1C` [Compound 3d], on KDM6A (UTX) [3], the “KDM6A (UTX) Inhibition (%) 1 (μM)” value was determined as 3% and the “KDM6A (UTX) Inhibition (%) 10 (μM)” value is on record as 100%.

Turning to `Cc1c(O)c(=O)ccn1Cc1ccc(Cn2ccc(=O)c(O)c2C)cc1` [Compound 3f, 1,1′-(1,4-Phenylenebis(methylene))bis(3-hydroxy-2-methylpyridin-4(1H)-one)], on KDM6A (UTX) [2], the inhibition at 1 µM was determined as 5% and the inhibition at 10 µM is 100%.

As for `Cc1c(O)c(=O)ccn1C1CCC(CC2CCC(n3ccc(=O)c(O)c3C)CC2)CC1` (stereo not drawn) [Compound 3g, 1,1′-(Methylenebis(cyclohexane-4,1-diyl))bis(3-hydroxy-2-methylpyridin-4(1H)-one)], in test [1], the “concentration at which maximum inhibition of heterochromatin formation / gene repression is reached” value is 2.5 µM and the “inhibition … (in words)” value is “significantly inhibited”. Also, on KDM6A (UTX) [2], the inhibition at 1 µM was 9% and the inhibition at 10 µM amounted to 100%. Also, the “IC50 against KDM6A (in words)” value at KDM6A (UTX) [3] is recorded as “low micromolar”.

Turning to `CC/C(=C(\c1ccccc1)c1ccc(OCCN(C)Cc2ccc(-c3cn(CCn4ccc(=O)c(O)c4C)nn3)cc2)cc1)c1ccccc1` [Compound 36a], on KDM6A (UTX) [2], the inhibition at 1 µM came to 9% and the inhibition at 10 µM turned out to be 100%. In addition, in the test with MDA-MB-231 (TNBC BCa) (Homo sapiens, MDA-MB-231, 72 h), the IC50 stood at 1.6 µM.
